From article PMC3914206

Columns and labels:
panel of 442 kinases [1] = biological target: T1, panel of 442 kinases (Homo sapiens, UniProt P00533, L858R); type: binding; conditions: Compound Concentration 10 µM
T1 construct: purchased KINOMEscan
From the text: (§1) We assessed the selectivity of members of this scaffold using the KINOMEscan methodology across a near comprehensive panel of 442 kinases [[18,27]].

panel of 442 kinases [2] = biological target: T2, panel of 442 kinases (Homo sapiens, UniProt Q8NG66); type: binding; conditions: Compound Concentration 10 µM
T2 construct: purchased KINOMEscan
T2 sequence (Q8NG66 1-645): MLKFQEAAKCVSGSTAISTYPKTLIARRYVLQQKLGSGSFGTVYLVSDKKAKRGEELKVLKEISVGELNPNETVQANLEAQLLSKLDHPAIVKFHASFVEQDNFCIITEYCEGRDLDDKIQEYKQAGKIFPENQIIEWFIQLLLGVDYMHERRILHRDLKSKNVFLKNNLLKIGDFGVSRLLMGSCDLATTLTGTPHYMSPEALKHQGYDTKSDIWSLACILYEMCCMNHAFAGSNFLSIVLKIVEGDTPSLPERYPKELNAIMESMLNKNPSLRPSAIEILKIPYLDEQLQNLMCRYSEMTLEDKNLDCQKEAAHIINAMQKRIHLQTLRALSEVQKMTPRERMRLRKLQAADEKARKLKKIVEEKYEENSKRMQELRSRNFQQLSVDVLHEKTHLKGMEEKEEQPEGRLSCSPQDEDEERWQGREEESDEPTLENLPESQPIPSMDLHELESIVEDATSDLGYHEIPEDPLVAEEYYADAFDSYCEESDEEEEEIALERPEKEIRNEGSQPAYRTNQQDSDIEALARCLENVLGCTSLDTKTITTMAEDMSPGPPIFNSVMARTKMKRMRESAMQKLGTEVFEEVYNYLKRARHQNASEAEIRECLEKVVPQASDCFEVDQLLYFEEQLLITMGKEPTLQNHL
From the text: as §1

T1 sequence (P00533 25-1210 L858R): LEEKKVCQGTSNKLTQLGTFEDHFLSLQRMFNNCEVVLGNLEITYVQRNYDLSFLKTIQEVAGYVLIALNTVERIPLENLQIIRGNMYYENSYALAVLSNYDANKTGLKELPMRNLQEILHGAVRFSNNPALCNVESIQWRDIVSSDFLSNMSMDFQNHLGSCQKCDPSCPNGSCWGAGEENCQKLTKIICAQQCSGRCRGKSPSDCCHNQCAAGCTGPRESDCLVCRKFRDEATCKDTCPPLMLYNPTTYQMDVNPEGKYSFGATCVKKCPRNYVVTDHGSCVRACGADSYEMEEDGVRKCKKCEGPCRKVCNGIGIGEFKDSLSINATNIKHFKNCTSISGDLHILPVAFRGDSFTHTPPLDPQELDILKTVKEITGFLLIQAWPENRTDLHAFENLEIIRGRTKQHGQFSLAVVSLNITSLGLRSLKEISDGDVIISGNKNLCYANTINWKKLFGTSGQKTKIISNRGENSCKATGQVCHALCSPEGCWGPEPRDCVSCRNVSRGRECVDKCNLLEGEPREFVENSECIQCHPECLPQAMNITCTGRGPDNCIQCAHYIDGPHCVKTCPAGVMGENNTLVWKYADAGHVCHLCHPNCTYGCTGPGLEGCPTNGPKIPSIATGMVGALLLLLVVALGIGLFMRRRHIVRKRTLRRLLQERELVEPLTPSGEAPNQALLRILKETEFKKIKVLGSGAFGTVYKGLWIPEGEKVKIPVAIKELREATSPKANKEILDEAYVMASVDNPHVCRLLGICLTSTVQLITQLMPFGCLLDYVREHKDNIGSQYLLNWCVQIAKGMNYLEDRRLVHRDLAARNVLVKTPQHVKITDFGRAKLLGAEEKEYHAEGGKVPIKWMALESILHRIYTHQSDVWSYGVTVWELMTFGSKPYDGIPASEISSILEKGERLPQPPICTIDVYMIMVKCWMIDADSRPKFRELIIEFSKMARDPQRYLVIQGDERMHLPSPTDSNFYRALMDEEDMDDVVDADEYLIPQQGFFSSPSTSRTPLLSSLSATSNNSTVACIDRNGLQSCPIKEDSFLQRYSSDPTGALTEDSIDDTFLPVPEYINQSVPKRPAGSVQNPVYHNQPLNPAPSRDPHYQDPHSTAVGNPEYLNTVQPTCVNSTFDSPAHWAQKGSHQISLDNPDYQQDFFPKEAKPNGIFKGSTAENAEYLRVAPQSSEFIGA

COc1cc(C(=O)N2CCC(N3CCN(C)CC3)CC2)ccc1Nc1ncc2c(n1)N(C)c1ccccc1C(=O)N2C [15 (LRRK2-IN-1)]
KINOMEscan: EGFR(L858R) (panel of 442 kinases [1]): 79 | KINOMEscan: NEK11 (panel of 442 kinases [2]): 100

COc1cc(C(=O)N2CCC(N3CCN(C)CC3)CC2)ccc1Nc1ncc2c(n1)N1CCc3cccc(c31)C(=O)N2C [Compound 24]
KINOMEscan: EGFR(L858R) (panel of 442 kinases [1]): 62

COc1cc(C(=O)N2CCC(N3CCN(C)CC3)CC2)ccc1Nc1ncc2c(n1)N(C1CCCC1)c1ccccc1C(=O)N2C [Compound 25, 11-cyclopentyl-2-((2-methoxy-4-(4-(4-methylpiperazin-1-yl)piperidine-1-carbonyl)phenyl)amino)-5-methyl-5H-benzo[e]pyrimido[5,4-b][1,4]diazepin-6(11H)-one]
KINOMEscan: EGFR(L858R) (panel of 442 kinases [1]): 83 | KINOMEscan: NEK11 (panel of 442 kinases [2]): 100

CCOc1cc(C(=O)N2CCC(N3CCN(C)CC3)CC2)ccc1Nc1ncc2c(n1)N(C1CCCC1)c1ccccc1C(=O)N2C [Compound 26]
KINOMEscan: EGFR(L858R) (panel of 442 kinases [1]): 100 | KINOMEscan: NEK11 (panel of 442 kinases [2]): 100
